Values joined by “and” are separate entries in the source; they are usually repeats but may differ in a detail not shown here. Identical values can stand only once. Like-named read-outs stand apart in the source and are kept apart here.
Key:
[1] = target: T1, homomeric cbv1 (rslo1) channels (Rattus norvegicus, UniProt Q62976); assay: Inside-out patch-clamp of homomeric cbv1 channels expressed in Xenopus oocytes; type: cell-based; conditions: I/O patches, Ca2+i 10 μM, ±20 mV, read-out: Average NPo (% of control)
T1 construct: Full-length cDNA coding for cbv1-subunits was cloned from rat cerebral artery myocytes by PCR; expressed in transfected cells; host or cells: Xenopus laevis oocytes (cRNA injection)
T1 sequence (Q62976 1-1148 isoform Q62976-2): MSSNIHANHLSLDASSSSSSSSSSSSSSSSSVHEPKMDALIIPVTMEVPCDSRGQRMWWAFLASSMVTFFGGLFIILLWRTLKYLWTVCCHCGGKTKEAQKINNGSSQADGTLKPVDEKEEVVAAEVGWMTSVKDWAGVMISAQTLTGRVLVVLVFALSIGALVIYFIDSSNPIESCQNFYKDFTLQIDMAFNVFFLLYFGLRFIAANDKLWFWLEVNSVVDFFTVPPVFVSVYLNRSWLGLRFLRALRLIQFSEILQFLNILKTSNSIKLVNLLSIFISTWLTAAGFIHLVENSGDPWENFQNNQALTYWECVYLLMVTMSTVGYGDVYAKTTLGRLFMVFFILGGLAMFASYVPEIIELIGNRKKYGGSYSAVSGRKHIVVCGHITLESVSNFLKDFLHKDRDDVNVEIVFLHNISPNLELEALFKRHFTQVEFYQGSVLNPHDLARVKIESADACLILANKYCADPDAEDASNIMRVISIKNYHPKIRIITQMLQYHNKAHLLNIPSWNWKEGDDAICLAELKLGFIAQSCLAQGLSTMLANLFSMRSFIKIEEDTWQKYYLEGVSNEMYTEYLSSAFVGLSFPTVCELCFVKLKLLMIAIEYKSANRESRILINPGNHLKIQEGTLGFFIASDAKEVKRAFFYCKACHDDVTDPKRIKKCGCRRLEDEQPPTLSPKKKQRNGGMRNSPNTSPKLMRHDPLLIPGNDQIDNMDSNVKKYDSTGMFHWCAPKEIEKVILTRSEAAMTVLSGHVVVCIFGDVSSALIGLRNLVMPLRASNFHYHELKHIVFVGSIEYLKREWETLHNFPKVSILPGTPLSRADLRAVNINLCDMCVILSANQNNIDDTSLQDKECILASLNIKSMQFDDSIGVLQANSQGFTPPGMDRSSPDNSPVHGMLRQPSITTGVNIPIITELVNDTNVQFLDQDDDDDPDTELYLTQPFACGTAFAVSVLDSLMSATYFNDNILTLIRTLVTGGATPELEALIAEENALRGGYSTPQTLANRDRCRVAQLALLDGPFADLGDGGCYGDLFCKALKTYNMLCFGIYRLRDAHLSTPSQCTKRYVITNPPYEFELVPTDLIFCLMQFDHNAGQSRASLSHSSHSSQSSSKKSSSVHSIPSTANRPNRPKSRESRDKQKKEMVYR
From the text: cRNA Preparation and Injection into Xenopus Oocytes. Full-length cDNA coding for cbv1-subunits was cloned from rat cerebral artery myocytes by PCR and ligated to the PCR-XL-TOPO cloning vector (Invitrogen Corp., Carlsbad, Calif., United States of America) (Jaggar et al., 2005). cDNA coding for cbv1-subunits was cleaved from the cloning vector by BamHI (Invitrogen Corp., Carlsbad, Calif., United States of America) and XhoI (Promega, Madison, Wis., United States of America) and directly inserted into the pOX vector for expression in Xenopus oocytes. pOX-cbv1 was linearized with NotI (Promega, Madison, Wis., United States of America) and transcribed in vitro using T3 polymerase. […]
Electrophysiology. […] Single-channel and macroscopic currents were recorded from inside-out (I/O) or outside-out (O/O) patches. […] Nominal free Ca^2+ was calculated with MaxChelator Sliders (C. Patton, Stanford University, California, United States of America) and validated experimentally using Ca^2+-selective electrodes (Corning Incorporated Science Products Division, Corning, N.Y., United States of America). […]
(§1) Currents were recorded using an EPC8 amplifier (HEKA Electronics, Lambrecht/Pfalz, Germany) at 1 kHz using a low-pass, eight-pole Bessel filter 902LPF (Frequency Devices, Haverhill, Mass., United States of America). […]

cbv1+β1 channels = cbv1+β1 channels (UniProt Q16558+Q62976); assay: Patch-clamp of heteromeric cbv1+β1 channels expressed in Xenopus oocytes; type: cell-based, rat
Chain of cbv1+β1 channels (Q62976 1-1148 isoform Q62976-2): as above
Chain of cbv1+β1 channels (Q16558 whole entry): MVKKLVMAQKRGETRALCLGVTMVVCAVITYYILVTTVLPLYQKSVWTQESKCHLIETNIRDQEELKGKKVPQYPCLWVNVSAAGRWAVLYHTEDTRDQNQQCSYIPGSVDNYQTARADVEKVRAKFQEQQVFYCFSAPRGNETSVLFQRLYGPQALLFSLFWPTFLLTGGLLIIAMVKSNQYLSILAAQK
From the text: cRNA Preparation and Injection into Xenopus Oocytes. Full-length cDNA coding for cbv1-subunits was cloned from rat cerebral artery myocytes by PCR and ligated to the PCR-XL-TOPO cloning vector (Invitrogen Corp., Carlsbad, Calif., United States of America) (Jaggar et al., 2005). cDNA coding for cbv1-subunits was cleaved from the cloning vector by BamHI (Invitrogen Corp., Carlsbad, Calif., United States of America) and XhoI (Promega, Madison, Wis., United States of America) and directly inserted into the pOX vector for expression in Xenopus oocytes. pOX-cbv1 was linearized with NotI (Promega, Madison, Wis., United States of America) and transcribed in vitro using T3 polymerase. Beta,-subunit cDNA inserted into the EcoR I/Sal I sites of the pCl-neo expression vector was linearized with NotI and transcribed in vitro using T7 polymerase. Beta4-subunit cDNA inserted into the pOx vector was linearized by NotI and transcribed using T3 polymerase. The mMessage-mMachine kit (Ambion Inc., Austin, Tex., United States of America) was used for transcription. The pOX vector and the cDNA coding for β1-subunits were generous gifts from Aguan Wei (Washington University, Saint Louis, Mo., United States of America) and Maria Garcia (Merck Research Laboratories, Whitehouse Station, N.J., United States of America).
Oocytes were removed from Xenopus laevis and prepared as described (Dopico et al., 1998). cRNA was dissolved in […] at 5 (cbv1) and 15 (β1 or β4) ng/μl; 1-μl aliquots were stored at −70° C. Cbv1 cRNA was injected alone (2.5 ng/μp) or coinjected with either β1 or β4 (7.5 ng/μl) cRNAs, giving molar ratios ≧6:1 (β:α). cRNA injection (23 nl/oocyte) was conducted using a modified micropipette (Drummond Scientific Co., Broomall, Pa., United States of America). The interval between injection and patch-clamp recordings was 48-72 h.
Electrophysiology. Oocytes were prepared for patch-clamp recordings as described (Dopico et al., 1998). Single-channel and macroscopic currents were recorded from inside-out (I/O) or outside-out (O/O) patches. For experiments with oocytes, both bath and electrode solutions contained (mM) 135 K^+ gluconate, 5 EGTA, 1 MgCl2, 15 HEPES, 10 glucose, pH 7.35. For experiments with myocytes, KCl substituted for K^+ gluconate. In all experiments, free Ca^2+ in solution was adjusted to the desired value by adding CaCl2. In most studies, free Ca^2+ in electrode solution=10 μM. In O/O studies with 17β-estradiol, however, free Ca^2+ in the electrode solution=0.3 μM. Nominal free Ca^2+ was calculated with MaxChelator Sliders (C. Patton, Stanford University, California, United States of America) and validated experimentally using Ca^2+-selective electrodes (Corning Incorporated Science Products Division, Corning, N.Y., United States of America).
Patch-recording electrodes were made as described (Dopico et al., 1998). Immediately before recording, the tip of each electrode was fire-polished on a microforge WPI MF-200 (World Precision Instruments, Inc., Sarasota, Fla., United States of America) to give resistances of 5-9 MD when filled with solution. An agar bridge with gluconate or Cl^− as the main anion (for oocyte and myocyte experiments, respectively) was used as ground electrode. After excision from the cell, the membrane patch was exposed to a stream of bath solution containing each agent at final concentration. Solutions were applied onto the patches using a pressurized system DAD12 (ALA Scientific Instruments, New York, N.Y., United States of America) via a micropipette tip with an internal diameter of 100 μm. Experiments were carried out at room temperature (21° C.).
as §1

C[C@H](CCC(=O)O)[C@H]1CC[C@H]2[C@@H]3CC[C@@H]4C[C@H](O)CC[C@]4(C)[C@H]3CC[C@]12C [LC, 5β-cholanic acid 3α-ol]
remaining activity at 150 µM [1]: 112 ± 13% | LC-activation (as a percentage of NPo in vehicle) (cbv1+β1 channels; 150 μM, 0.1 μM Ca2+): 139.9±32.9% | Emax at 150 µM (cbv1+β1 channels; 150 μM, 1 μM Ca2+, read-out: LC-activation (as a percentage of NPo in vehicle), maximal effect): 244 ± 58.9% | Percent of control at 150 µM (cbv1+β1 channels; 150 μM, 30 μM Ca2+i, read-out: NPo in LC (% of control)): 172 ± 9.5% | Decrease in mean close time (cbv1+β1 channels; 150 μM, FIG. 4B): −60% | Percent of control at 150 µM (cbv1+β1 channels; 150 μM, patches with N=1, read-out: Channel mean closed time (% of control)): 41% | Percent of control at 150 µM (cbv1+β1 channels; 150 μM, patches with N=1, read-out: Channel mean open time (% of control)): 137% | Increase in Po (cbv1+β1 channels; 150 μM, single-channel I/O patch (N=1), +20 mV, Ca2+i 10 μM): 320% | Emax (cbv1+β1 channels; I/O patches, Ca2+i 10 μM, read-out: NPo at Emax (% of control)): 290 ± 45% | EC50 (cbv1+β1 channels; I/O patches, Ca2+i 10 μM, ±20 mV, read-out: EC50 for increase in NPo): 43.5 µM and 46 µM

From patent publication US20080200439A1, “Methods and compositions for modulating BK channel activity and vasodilation” (University of Tennessee Research Foundation, priority 2006, published 2008)
